{
  "source": "patent US8754057B2",
  "about": "“Inhibition of apoptosis-specific eIF-5A(eIF-5A1″) with antisense oligonucleotides and siRNA as anti-inflammatory therapeutics” (Senesco Technologies, Inc., priority 2003, dated 2014)",
  "assay_type_in_all_cases": "cell-based, human",
  "key": {"[1]": {"tested_on": "lamina cribrosa cell line #506", "assay": "TUNEL labeling of siRNA-transfected LC cells treated with TNF-α and camptothecin", "conditions": "LC #506, TNF-α and camptothecin 24 h", "description": "Lamina cribrosa cell line #506 cells were seeded at 7500 cells per well onto an 8-well culture slide. Three days later the LC cells were transfected with either apoptosis-specific eIF-5A siRNA #1 (SEQ ID NO:30) or control siRNA #5 (SEQ ID NO:34). 72 hours after transfection, the transfected cells were treated with 10 ng/ml TNF-α plus 50 μM camptothecin. Twenty-four hours later the cells were stained with Hoescht 33258 and DNA fragmentation was evaluated in situ using the terminal deoxynucleotidyl transferase-mediated dUTP-digoxigenin nick end labeling (TUNEL) method. Panel A represents the slide observed by fluorescence microscopy using a fluorescein filter to visualize TUNEL-labeling of the fragmented DNA of apoptotic cells. Panel B represents the same slide observed by through a UV filter to visualize the Hoescht-stained nuclei. The results are representative of two independent experiments. All pictures were taken at 400 times magnification.\nTransfected cells that had been treated with TNF-α and camptothecin for 24 hours were stained with Hoescht 33258 in order to determine the percentage of cells undergoing apoptosis. Briefly, cells were fixed with a 3:1 mixture of absolute methanol and glacial acetic acid and then incubated with Hoescht stain (0.5 μg/ml Hoescht 33258 in PBS). After a 10 minute incubation in the dark, the staining solution was discarded, the chambers separating the wells of the culture slide were removed, and the slide was washed 3 times for 1 minute with deionized water. After washing, a few drops of Mcllvaine's buffer (0.021 M citric acid, 0.058 M Na2HPO4.7H2O; pH 5.6) was added to the cells and overlaid with a coverslip. The stained cells were viewed under a fluorescent microscope using a UV filter. Cells with brightly stained or fragmented nuclei were scored as apoptotic. A minimum of 200 cells were counted per well. The DeadEnd™ Fluorometric TUNEL (Promega) was also used to detect the DNA fragmentation that is a characteristic feature of apoptotic cells. Following Hoescht staining, the culture slide was washed briefly with distilled water, and further washed by immersing the slide twice for 5 minutes in PBS (137 mM NaCl, 2.68 mM KCl, 1.47 mM KH2PO4, 8.1 mM Na2HPO4), blotting the slide on paper towel between washes. The cells were permeabilized by immersing them in 0.2% Triton X-100 in PBS for 5 minutes. The cells were then washed again by immersing the slide twice for 5 minutes in PBS and blotting the slide on paper towel between washes. 25 μl of equilibration buffer [200 mM potassium cacodylate (pH 6.6), 25 mM. Tris-HCl (pH 6.6), 0.2 mM dithiothreitol, 0.25 mg/ml bovine serum albumin, and 2.5 mM cobalt chloride] was added per well and incubated for 5 to 10 minutes. […] Any cells with brightly stained or fragmented nuclei were scored as apoptotic. […]"}, "RKO cells": {"tested_on": "RKO cells", "assay": "Western blots of RKO cells treated with Actinomycin D", "conditions": "0.25 μg/ml Actinomycin D for 0, 3, 7, 24, and 48 hours", "description": "FIG. 43 provides Western blots of protein extracted from RKO cells treated with 0.25 μg/ml Actinomycin D for 0, 3, 7, 24, and 48 hours. The top panel depicts a Western blot using anti-p53 as the primary antibody. The middle panel depicts a Western blot using anti-apoptosis-specific eIF-5A as the primary antibody."}, "[2]": {"tested_on": "lamina cribrosa cell line #506", "assay": "Hoescht staining apoptosis of siRNA-transfected lamina cribrosa cells treated with TNF-α and camptothecin", "conditions": "LC #506, 72 h after siRNA transfection, 24 h 10 ng/ml TNF-α plus 50 μM camptothecin", "description": "Lamina cribrosa cell line #506 cells were seeded at 7500 cells per well onto an 8-well culture slide. Three days later the LC cells were transfected with either GAPDH siRNA, apoptosis-specific eIF-5A siRNAs #1-4 (SEQ ID NO:30-33), or control siRNA #5 (SEQ ID NO:34). 72 hours after transfection, the transfected cells were treated with 10 ng/ml TNF-α plus 50 μM camptothecin. Twenty-four hours later the cells were stained with Hoescht 33258 and viewed by fluorescence microscopy using a UV filter. Cells with brightly stained condensed or fragmented nuclei were counted as apoptotic. This graph represents the average of n=4 independent experiments.\nFollowing transfection, RKO and lamina cribrosa cells were incubated for 72 hours prior to collection of cellular extract for Western blot analysis. In order to determine the effectiveness of the siRNAs directed against apoptosis-specific eIF-5A to block apoptosis, lamina cribrosa cells were treated with 50 μM of camptothecin (Sigma) and 10 ng/ml of TNF-α (Leinco Technologies) to induce apoptosis either 48 or 72 hours after transfection. The cells were stained with Hoescht either 24 or 48 hours later in order to determine the percentage of cells undergoing apoptosis.\nSmall inhibitory RNAs (siRNAs) directed against human apoptosis-specific eIF-5A were used to specifically suppress expression of eIF5A in lamina cribrosa cells. Six siRNAs were generated by in vitro transcription using the Silencer™ siRNA Construction Kit (Ambion Inc.), Four siRNAs were generated against human apoptosis-specific eIF-5A (siRNAs #1 to #4). […] The siRNAs were generated according to the manufacturer's protocol. The eIF5A and control siRNA targets had the following sequences: siRNA #1 5′ […] 3′ (SEQ ID NO: 81); siRNA #2 5′ […] 3′ (SEQ ID NO: 82); siRNA #3 5′ […] 3′ (SEQ ID NO: 83); siRNA #4 5′ […] 3′ (SEQ ID NO: 84); siRNA #5′ […] 3′ (SEQ ID NO: 85). Lamina cribrosa cells were transfected with siRNA using LipofectAMINE 2000.\nLamina cribrosa cells were transfected when cell confluence was at 40 to 70% and were generally seeded onto 8-well culture slides at 7500 cells per well three days prior to transfection. Transfection medium sufficient for one well of an 8-well culture slide was prepared by diluting 25.5 proles of siRNA to a final volume of 21.2 μl in Opti-Mem (Sigma). 0.425 μl of Lipofectamine 2000 was diluted to a final volume of 21.2 μl in Opti-Mem and incubated for 7 to 10 minutes at room temperature. The diluted Lipofectamine 2000 mixture was then added to the diluted siRNA mixture and incubated together at room temperature for 20 to 30 minutes, The cells were washed once with serum-free media before adding 135 μl of serum-free media to the cells and overlaying 42.4 μl of transfection medium. […]"}, "[3]": {"tested_on": "lamina cribrosa cell line #506", "conditions": "48 hours; Hoescht staining", "description": "FIG. 83 is a graph showing percent apoptosis of lamina cribrosa cell line #506 in response to treatment with camptothecin and TNF-α. Lamina cribrosa cell line #506 cells were seeded at 40,000 cells per well onto an 8-well culture slide. Three days later the confluent LC cells were treated with either 10 ng/ml TNF-α, 50 μM camptothecin, or 10 ng/ml TNF-α plus 50 μM camptothecin. An equivalent volume of DMSO, a vehicle control for camptothecin, was added to the untreated control cells. The cells were stained with Hoescht 33258 48 hours after treatment and viewed by fluorescence microscopy using a UV filter. Cells with brightly stained condensed or fragmented nuclei were counted as apoptotic.\nApoptosis was induced in lamina cribrosa cells using a combination of 50 μM camptothecin (Sigma) and 10 ng/ml TNF-α (Leinco Technologies).\nSince TNF-α is believed to play an important role during the glaucomatous process, the susceptibility of LC cells to the cytotoxic effects of TNF-α was examined. Confluent LC cells were exposed to either camptothecin, TNF-α, or a combination of camptothecin and TNF-α for 48 hours (FIG. 83)."}, "[4]": {"tested_on": "apoptosis-specific eIF-5A", "assay": "Western blot of HT-29 cells treated with IFN gamma", "conditions": "at 8 hours", "description": "FIG. 81 is a western blot of HT-29 cells treated with IFN gamma for 8 and 24 hours.\nPriming the cells with interferon gamma prior to TNF treatment causes the cells to produce more IL-8 than either treatment alone. This may be due to the known upregulation of the TNF receptor 1 in response to interferon, so ‘priming’ the cells with interferon allows them to respond to TNF better since the cells have more receptors. siRNA against apoptosis-specific eIF-5A had no effect on IL-8 production in response to TNF alone (previous experiment) however, the siRNA blocked almost all IL-8 produced in response to interferon as well as a significant amount of the IL-8 produced as a result of the combined treatment of interferon and TNF. […] FIG. 81 is a western showing up-regulation (4 fold at 8 hours) of apoptosis-specific eIF-5A in response to interferon gamma in HT-29 cells."}},
  "note": "*1 amine or outer side, *2 acyl side, *3 side chain or, on linkers, in order; H or OH if unused. Where a SMILES comes first, the peptide text is derived from it. Bridges are numbered along the chain shown (N, C = ends). Roman numbers before positions name the chains, in order. [ ]: non-standard residue; d: D form. Actinocin(9to1) = Cc1c2oc3c(C)ccc(C(=O)[*:1])c3nc-2c(C(=O)[*:2])c(N)c1=O; NMeV = CN[C@H](C(=O)O)C(C)C; Sar = CNCC(=O)O",
  "data": [
    {"molecule": "siRNA #5: control siRNA (SEQ ID NO:34) with the reverse sequence of siRNA #1; does not target eIF5A (AAAGTCGACCTTCAGTAAGGATT; listed as DNA, chemistry not fully specified; listed as Homo sapiens)", "values": [
      {"measurement": "LC cells positive for TUNEL staining", "setting": "[1]; 3 days after transfection", "value": 46, "unit": "%"}
    ]},
    {"molecule": "Cc1c2oc3c(C)ccc(C(=O)N[C@@H]4C(=O)N[C@H](C(C)C)C(=O)N5CCC[C@H]5C(=O)N(C)CC(=O)N(C)[C@@H](C(C)C)C(=O)O[C@@H]4C)c3nc-2c(C(=O)N[C@@H]2C(=O)N[C@H](C(C)C)C(=O)N3CCC[C@H]3C(=O)N(C)CC(=O)N(C)[C@@H](C(C)C)C(=O)O[C@@H]2C)c(N)c1=O", "note": "[Actinomycin D] (I: T[dV]P[Sar][NMeV] / II: T[dV]P[Sar][NMeV]; ester I:1-I:C, II:1-II:C; linker I:N-II:N via Actinocin(9to1))", "values": [
      {"measurement": "apoptosis-specific eIF-5A protein", "setting": "RKO cells", "value": "upregulated"},
      {"measurement": "p53 protein", "setting": "RKO cells", "value": "upregulated"}
    ]},
    {"molecule": "siRNA #2: siRNA against human apoptosis-specific eIF-5A (SEQ ID NO:31); target 5′ AAGATCGTCGAGATGTCTACT 3′ (SEQ ID NO: 82) (AAGAUCGUCGAGAUGUCUACUUC; unmodified RNA; listed as Homo sapiens)", "values": [
      {"measurement": "reduce apoptosis of LC cells", "setting": "[2]", "value": 35, "unit": "%"}
    ]},
    {"molecule": "siRNA #4: siRNA against human apoptosis-specific eIF-5A (SEQ ID NO:33); target 5′ AAGCTGGACTCCTCCTACACA 3′ (SEQ ID NO: 84) (AAGCTGGACTCCTCCTACACAAT; listed as DNA, chemistry not fully specified; listed as Homo sapiens)", "values": [
      {"measurement": "reduce apoptosis of LC cells", "setting": "[2]", "value": 69, "unit": "%"},
      {"measurement": "protection from apoptosis relative to the control siRNA", "setting": "[1]; TUNEL", "value": "greater than 60%"}
    ]},
    {"molecule": "TNF-α", "values": [
      {"measurement": "cytotoxic to LC cells", "setting": "[3]", "value": "not cytotoxic"}
    ]},
    {"molecule": "siRNA #3: siRNA against human apoptosis-specific eIF-5A (SEQ ID NO:32); target 5′ AAGGTCCATCTGGTTGGTATT 3′ (SEQ ID NO: 83) (AAGGUCCAUCUGGUUGGUAUUGA; unmodified RNA; listed as Homo sapiens)", "values": [
      {"measurement": "reduce apoptosis of LC cells", "setting": "[2]", "value": 50, "unit": "%"}
    ]},
    {"molecule": "interferon gamma: interferon gamma (Roche Diagnostics)", "values": [
      {"measurement": "up-regulation of apoptosis-specific eIF-5A", "setting": "[4]", "value": 4, "unit": "fold"}
    ]}
  ]
}
